Inhibition data for 2 compounds are collected here from ChEMBL document CHEMBL5653615 (J Biol Chem, 2013).

The target of test [1] is T1, Serine/threonine-protein kinase Chk1 (Homo sapiens) (UniProt O14757).
T1 sequence (whole entry): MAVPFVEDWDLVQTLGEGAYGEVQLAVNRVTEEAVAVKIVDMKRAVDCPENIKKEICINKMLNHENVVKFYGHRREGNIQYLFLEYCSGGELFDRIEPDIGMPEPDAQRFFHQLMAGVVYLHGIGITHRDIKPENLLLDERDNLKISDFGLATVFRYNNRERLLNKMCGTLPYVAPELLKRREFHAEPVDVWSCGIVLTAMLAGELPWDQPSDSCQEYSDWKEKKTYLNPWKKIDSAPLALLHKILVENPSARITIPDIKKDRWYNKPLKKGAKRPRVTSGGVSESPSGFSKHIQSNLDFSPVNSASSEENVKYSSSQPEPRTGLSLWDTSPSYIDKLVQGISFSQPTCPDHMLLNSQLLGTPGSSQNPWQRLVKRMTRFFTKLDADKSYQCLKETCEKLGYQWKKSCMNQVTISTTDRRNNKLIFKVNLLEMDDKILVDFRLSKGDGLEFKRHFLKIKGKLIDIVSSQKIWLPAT
Briefly: Inhibition of human CHK1 at 500 nM by HotSpot assay relative to control.

Test [2] has as its target T2, Serine/threonine-protein kinase ULK2 (Homo sapiens) (UniProt Q8IYT8).
T2 sequence (whole entry): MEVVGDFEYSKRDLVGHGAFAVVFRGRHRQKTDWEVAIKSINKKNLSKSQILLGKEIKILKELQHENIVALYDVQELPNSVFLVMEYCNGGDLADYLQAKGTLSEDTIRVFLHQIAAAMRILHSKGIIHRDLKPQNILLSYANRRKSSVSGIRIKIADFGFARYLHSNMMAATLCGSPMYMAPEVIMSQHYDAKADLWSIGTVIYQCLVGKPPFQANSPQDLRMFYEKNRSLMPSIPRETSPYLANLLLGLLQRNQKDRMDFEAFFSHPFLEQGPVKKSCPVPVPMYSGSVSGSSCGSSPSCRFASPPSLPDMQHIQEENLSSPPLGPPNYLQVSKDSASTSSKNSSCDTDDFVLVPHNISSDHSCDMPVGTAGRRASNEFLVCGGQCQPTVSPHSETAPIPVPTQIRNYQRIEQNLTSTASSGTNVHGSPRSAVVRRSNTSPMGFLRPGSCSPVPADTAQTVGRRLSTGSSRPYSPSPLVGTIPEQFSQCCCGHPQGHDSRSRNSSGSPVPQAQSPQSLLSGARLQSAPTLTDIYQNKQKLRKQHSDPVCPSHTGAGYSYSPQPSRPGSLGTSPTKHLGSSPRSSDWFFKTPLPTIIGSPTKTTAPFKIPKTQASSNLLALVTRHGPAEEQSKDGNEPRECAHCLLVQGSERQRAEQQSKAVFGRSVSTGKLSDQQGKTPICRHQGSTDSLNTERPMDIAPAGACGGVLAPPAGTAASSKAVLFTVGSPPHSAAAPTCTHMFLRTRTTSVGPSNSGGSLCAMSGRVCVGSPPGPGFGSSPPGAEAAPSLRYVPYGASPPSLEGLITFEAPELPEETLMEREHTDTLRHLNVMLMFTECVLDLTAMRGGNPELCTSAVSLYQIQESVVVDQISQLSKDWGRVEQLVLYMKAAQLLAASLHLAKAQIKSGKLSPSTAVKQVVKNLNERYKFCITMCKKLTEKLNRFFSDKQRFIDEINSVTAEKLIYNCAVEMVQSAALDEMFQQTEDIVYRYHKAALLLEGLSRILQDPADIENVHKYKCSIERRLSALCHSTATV
The experiment in a line: Inhibition of human ULK2 at 500 nM by HotSpot assay relative to control.

Test [3] deals with T3, Mitogen-activated protein kinase kinase kinase 2 (Homo sapiens) (UniProt Q9Y2U5).
T3 sequence (whole entry): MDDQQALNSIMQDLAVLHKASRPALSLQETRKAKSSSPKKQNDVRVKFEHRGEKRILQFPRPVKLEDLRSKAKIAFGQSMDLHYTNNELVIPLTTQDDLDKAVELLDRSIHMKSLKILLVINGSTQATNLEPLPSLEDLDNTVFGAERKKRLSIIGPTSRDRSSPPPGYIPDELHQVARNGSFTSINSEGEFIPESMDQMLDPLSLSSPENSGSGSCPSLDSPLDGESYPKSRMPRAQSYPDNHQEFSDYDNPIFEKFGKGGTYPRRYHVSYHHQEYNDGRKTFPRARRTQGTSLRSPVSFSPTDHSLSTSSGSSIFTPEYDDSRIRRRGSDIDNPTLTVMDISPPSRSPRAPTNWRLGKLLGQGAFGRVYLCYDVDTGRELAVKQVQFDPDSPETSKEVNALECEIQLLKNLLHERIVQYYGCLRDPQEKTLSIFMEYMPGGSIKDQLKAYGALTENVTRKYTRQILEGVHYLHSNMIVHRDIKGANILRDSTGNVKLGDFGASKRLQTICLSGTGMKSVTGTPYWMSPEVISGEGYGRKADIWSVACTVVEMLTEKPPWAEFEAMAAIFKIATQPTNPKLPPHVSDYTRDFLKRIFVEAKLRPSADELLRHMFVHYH
Briefly: Inhibition of human MEKK2 at 500 nM by HotSpot assay relative to control.

In test [4] the target is Protein kinase C beta type (Homo sapiens) (UniProt P05771). Briefly: Inhibition of human PKCb2 at 500 nM by HotSpot assay relative to control.
Chain of Protein kinase C beta type (Homo sapiens) (P05771 2-671 limits assumed): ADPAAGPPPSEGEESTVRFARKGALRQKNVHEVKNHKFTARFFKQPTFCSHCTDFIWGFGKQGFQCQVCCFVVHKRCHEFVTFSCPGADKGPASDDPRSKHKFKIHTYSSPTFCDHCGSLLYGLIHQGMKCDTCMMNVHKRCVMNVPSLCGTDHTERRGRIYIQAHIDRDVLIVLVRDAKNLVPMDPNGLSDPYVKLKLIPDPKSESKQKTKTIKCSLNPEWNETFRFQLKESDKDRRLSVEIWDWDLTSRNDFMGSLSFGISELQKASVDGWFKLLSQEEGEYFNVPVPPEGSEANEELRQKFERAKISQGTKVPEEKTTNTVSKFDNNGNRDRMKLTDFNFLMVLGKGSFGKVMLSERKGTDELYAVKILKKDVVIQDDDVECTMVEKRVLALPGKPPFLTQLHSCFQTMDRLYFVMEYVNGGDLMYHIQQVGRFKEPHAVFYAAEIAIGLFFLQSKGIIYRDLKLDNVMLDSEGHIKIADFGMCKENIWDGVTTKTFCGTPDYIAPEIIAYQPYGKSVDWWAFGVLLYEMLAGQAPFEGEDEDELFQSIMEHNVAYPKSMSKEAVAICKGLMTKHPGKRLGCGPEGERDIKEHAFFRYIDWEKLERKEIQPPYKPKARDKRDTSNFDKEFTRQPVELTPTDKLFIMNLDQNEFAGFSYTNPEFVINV

Turning to `Oc1n[nH]c2nnc(-c3c(-c4ccccc4)nn4ccccc34)cc12`, the inhibition (commonly the relative decrease from the control value, in per cent) is -1.38% in test [1], 0.86% in test [2], -0.17% in test [3] and -2.98% in test [4].

Take `Nc1n[nH]c2nnc(-c3c(-c4ccccc4)nn4ccccc34)cc12`: the inhibition in test [1] is -3.37%; in test [2], 0.02%; in test [3], 2.22%; in test [4] it was 0.34%.
